Data set [1] in a line: Oral bioavailability in rat at 5 mg/kg. As to conditions: in vivo. The class given is ADME, organism-based.
The nature of data set [2]: Half life in rat at 5 mg/kg, po and iv. Format: ADME, organism-based. Also noted: dose 5 mg/kg, route oral. The conditions noted are these: in vivo.
For data set [3], the species on record is Mus musculus. Put plainly: animal or person. As to conditions: BALB/c, po, 1 h, read-out: INH.

Molecules are shown by their SMILES.

As a reminder, the bioavailability is the share of a dose that reaches the circulation, judged against a reference dose that is usually intravenous. A lower bioavailability goes with poor availability. For orientation: half-life means the time in which the quantity being followed falls by half.

In data set [1], `Cn1c(-c2ccc3nccnc3c2)c(-c2cccc(Br)c2)c(=O)n1C` yielded a bioavailability of 34%. In data set [2], the half-life was 3 h. Further, in data set [3], the inhibition in vivo at 3 mg/kg was determined as 43%.
